Laboratory results as given in patent US20180055816A1, “PYRANONAPHTHOQUINONE COMPOUNDS AND METHODS OF USE THEREOF” (University of Kentucky Research Foundation, priority 2016, published 2018).
pIC50: −log10 of the molar value. “Also recorded” adds a separate entry of the source. Each block holds one molecule with its values, some of them ahead of it.

Columns and labels:
AKT phosphorylation = AKT phosphorylation in HCT116 cells (Western blot); assay type: cell-based, human; settings: HCT116, 12 h; 2 μM FB or UCF76-A, 0.5 μM AZD8055, 1 μM MK2206
Protocol: (§1) HCT116 cells were treated with 1 μM MK2206 and 100 nM PD0325901 alone and in combination, 100 nM rapamycin, 0.5 μM AZD8055, 2 μM UCF76-A or 2 μM FB for 12 h followed by Western blot analysis for the indicated proteins.
(§2) Cells were lysed in NP-40 lysis buffer (50 mM Tris-HCl, pH 7.5, 150 mM NaCl, 1 mM EDTA, 1% NP-40, 10% glycerol, protease and phosphatase inhibitor cocktail). Western blot analysis were performed using equivalent total protein loadings as described previously. For immunoprecipitation, the cell lysates were incubated with the indicated antibody overnight followed by incubation with a 50% slurry of protein G sepharose beads for 3 h at 4° C. The beads were washed three times with the lysis buffer, and the immunoprecipitated protein complexes were resuspended in 2× Laemmli sample buffer followed by western blot analysis.

p70S6K phosphorylation = p70S6K phosphorylation in HCT116 cells (Western blot); assay type: cell-based, human; settings: HCT116, 12 h; 2 μM FB or UCF76-A, 100 nM rapamycin, 0.5 μM AZD8055
Protocol: as §1, §2

S6 phosphorylation = S6 phosphorylation in HCT116 cells (Western blot); assay type: cell-based, human; settings: HCT116, 12 h; 2 μM FB or UCF76-A, 100 nM rapamycin, 0.5 μM AZD8055
Protocol: as §1, §2

HCT116 cells [1] = test: Apoptosis assay (propidium iodide/Annexin V flow cytometry) in HCT116 cells; assay type: cell-based, human; settings: HCT116, 72 hours
Protocol: (A) HCT116 cells were treated with different concentrations of FB and 12 for 12 hours. Cell lysates were precipitated with m^7GTP sepharose beads followed by Western blot analysis for the indicated proteins. (B) Inhibition of cap-dependent translation activity in HCT116 cells that were treated with the indicated compounds or DMSO as control for 12 hours was determined and analyzed as in FIG. 10A. (C) and (D) HCT116 cells were treated with different concentrations of FB and 12 for 72 hours. Apoptotic cells were analyzed by propidium iodide/Annexin V staining and flow cytometry (C). The results are expressed as the increased levels of apoptosis (D) by subtracting each of the DMSO-treated controls. All graphic data are presented as mean±s.e.m. (n=3 technical replicates per condition). *P<0.001 for 12 versus FB. Statistical significance was determined by the Student's t-test.
(§3) Cell growth was assessed as described previously. Briefly, 5×10^4 cells were seeded in 6-well plates in triplicates. After 24 h, cells were treated with the indicated compounds and incubated at 37° C. The cells were cultured for 3 days and the number of viable cells was counted using the Vi-CELL XR 2.03 (Beckman Coulter, Brea, Calif.). For apoptosis, cells were analyzed by flow cytometry using the Annexin V-FITC Apoptosis Detection Kit according to the manufacturer's protocol (BD Biosciences, San Jose, Calif.).

Prx1 = biological target: T1, Prx1 (Homo sapiens, UniProt Q06830); test: Prx1 catalytic activity inhibition; assay type: biochemical; settings: recombinant Prx1, 1 hour incubation
T1 sequence (Q06830 1-199): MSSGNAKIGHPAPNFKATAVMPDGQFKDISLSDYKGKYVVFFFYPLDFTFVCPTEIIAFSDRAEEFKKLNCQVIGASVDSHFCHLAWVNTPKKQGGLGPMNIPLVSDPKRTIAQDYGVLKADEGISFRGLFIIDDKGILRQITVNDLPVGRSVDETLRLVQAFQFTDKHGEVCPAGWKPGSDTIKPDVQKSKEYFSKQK
Protocol: The recombinant Prx1 protein was incubated with the indicated concentration of FB, 12, or conoidin A for 1 hour. Data are presented as mean±s.e.m. (n=3 technical replicates per condition). […]. Statistical significance was determined by the Student's t-test.
Prx1 and Grx3 are antioxidant enzymes known to regulate oxidative stress. Prx1 catalyzes peroxide reduction of H2O2, whereas Grx3 functions as glutathione (GSH)-dependent oxidoreductase by participating in the conversion of reduced GSH to oxidized glutathione disulfide (GSSG). […] While Grx3 biochemical assays are lacking, FB and active analogs could lead to a decrease in GSH levels and an increase in GSSG levels in HCT116 cells (FIGS. 23A-B). As antioxidant enzymes utilize cysteine-containing active sites to reduce various cellular peroxide or disulfide substrates, the role of Prx1/Grx3 cysteines in FB ligand-binding was assessed through replacing their cysteines to alanines. […] Finally, mass spectrometry analysis confirmed the covalent modification of Prx1 and Grx3 by FB at these specific target sites. These cumulative studies provide strong validation of Prx1 and Grx3 as the predominate molecular targets of PNQs in cancer cells.

[2] = test system: cap-dependent translation; test: Cap-dependent translation bicistronic luciferase reporter assay in HCT116 cells; assay type: cell-based, human; settings: 12 h
4E-BP1 phosphorylation [3] = test: Inhibition of 4E-BP1 phosphorylation in HCT116 cells (Western blot); assay type: cell-based, human; settings: for inhibition of 4E-BP1 phosphorylation: 12 h
Protocol: (§4) Compounds that pass this single dose filter are then tested in a CRC (HCT116) in vitro cytotoxicity assay and, in parallel, an in vitro assay to assess propensity for intracellular reactive oxygen species (ROS) production using the redox sensitive probe CeIIROX® Deep Red reagent (Invitrogen) by flow cytometry analysis (47).
as §2

[4] = Tolerability in tumor-bearing nude mice (body weight, maximum tolerated dose); assay type: in vivo
Protocol: Mice bearing HCT116 or DLD-1 CRC xenograft tumors were treated with compound 14 at 14 mg/kg or with vehicle control once per day for 5 consecutive days each week. The mouse body weight was measured twice per week in control and treated groups using a weighing scale. The results represent the mean body weight±s.e.m. (n=8 mice/group). *P>0.05 for 14 versus vehicle control in HCT116 or DLD-1 xenograft tumors. Statistical significance was determined by the Student's t-test.
Male athymic nude mice (5-6 weeks old) were purchased from Taconic (Hudson, N.Y., USA). Experiments were carried out under a protocol approved by the University of Kentucky Institutional Animal Care and Use Committee. HCT116 and DLD-1 xenograft tumors were established by subcutaneously injecting 3×10^6 cells in a 1:1 mixture of media and Matrigel (BD Biosciences) into the right flank. For efficacy studies, mice were randomized among control and treated groups (n=8 per group) when tumors were well-established (˜120 mm^3). Compound 14 was prepared freshly in saline and administered by intraperitoneal injection at 14 mg/kg once per day, Mon-Fri per week. Control mice received saline solution. Tumor dimensions were measured using a caliper and tumor volumes were calculated as mm^3=π/6× larger diameter×(smaller diameter)^2. […]

DLD-1 xenograft tumors = test: DLD-1 colon cancer xenograft in nude mice; assay type: in vivo; settings: 14 mg/kg intraperitoneal, daily five days a week, 2 weeks
Protocol: (§5) Male athymic nude mice (5-6 weeks old) were purchased from Taconic (Hudson, N.Y., USA). Experiments were carried out under a protocol approved by the University of Kentucky Institutional Animal Care and Use Committee. HCT116 and DLD-1 xenograft tumors were established by subcutaneously injecting 3×10^6 cells in a 1:1 mixture of media and Matrigel (BD Biosciences) into the right flank. For efficacy studies, mice were randomized among control and treated groups (n=8 per group) when tumors were well-established (˜120 mm^3). Compound 14 was prepared freshly in saline and administered by intraperitoneal injection at 14 mg/kg once per day, Mon-Fri per week. Control mice received saline solution. Tumor dimensions were measured using a caliper and tumor volumes were calculated as mm^3=π/6× larger diameter×(smaller diameter)^2. Tumors were excised and snap frozen in liquid nitrogen, homogenized in 2% SDS lysis buffer and then processed for Western blot analysis as described previously^5.

4E-BP1 phosphorylation [5] = test: Western blot of xenograft tumor extracts; assay type: in vivo, mice; settings: HCT116 or DLD-1 xenograft tumors, 6 h after the final treatment, 14 mg/kg
Protocol: FIGS. 34A-B. FB induces ROS production to repress 4E-BP1 phosphorylation and tumor growth in vivo. (A) Western blot analysis of representative tumors collected from mice in FIG. 32 6 h after the final treatment with 14 or vehicle control. (B) A proposed model for the anticancer mechanism of FB through targeting Prx1/Grx3 to induce ROS accumulation leading to inhibition of mTORC1/4E-BP1-mediated tarnaltion.
as §5

HCT116 xenograft tumors = test: HCT116 colon cancer xenograft in nude mice; assay type: in vivo; settings: 14 mg/kg intraperitoneal, daily five days a week, 2 weeks
Protocol: as §5

[6] = test system: intracellular reactive oxygen species (ROS); test: Intracellular ROS production, CellROX Deep Red flow cytometry, HCT116 cells; assay type: cell-based, human
Protocol: as §4
The ROS production was determined using the CellROX Deep Red Flow Cytometry Assay Kit according to the manufacturer's protocol (Life Technologies). Briefly, cells were treated with 2 μM of the indicated compounds or DMSO as control for 1 h. After treatment, cells were incubated with 0.5 μM of CellROX Deep Red reagent for 1 h at 37° C., washed twice with PBS and immediately analyzed by a FACScan flow cytometer. For the measurement of cellular H2O2 level, cells were treated with 2 μM of the indicated compounds for 5 h.

HCT116 cells [7] = test: Cell growth / cytotoxicity in HCT116 cells; assay type: cell-based, human; settings: Homo sapiens, HCT-116; colorectal cancer cell line HCT116
Protocol: as §4, §3

SMILES: COc1ccc(-c2ccc3c(N4CCOC[C@@H]4C)nc(N4CCOC[C@@H]4C)nc3n2)cc1CO [AZD8055]
- inhibition of AKT phosphorylation (AKT phosphorylation): inhibited
- inhibition of p70S6K phosphorylation (p70S6K phosphorylation): potently inhibited
- inhibition of S6 phosphorylation (S6 phosphorylation): potently inhibited

- inhibition of Prx1 catalytic activity (Prx1): potently inhibit
SMILES: O=C1C[C@H]2O[C@@H](CCC(F)(F)F)C3=C(C(=O)c4c(Cl)ccc(O)c4C3=O)[C@H]2O1 [Compound 12, (3aR,5S,11bR)-10-Chloro-7-hydroxy-5-(3,3,3-trifluoropropyl)-3,3a,5,11b-tetrahydro-2H-benzo[g]furo[3,2-c]isochromene-2,6,11-trione]
- induction of apoptosis compared with FB (HCT116 cells [1]): more potent that FB
- inhibition of cap-dependent translation [2]: more potent that FB
- fold more potent than FB as an inhibitor of 4E-BP1 phosphorylation (4E-BP1 phosphorylation [3]; relative to FB): up to 4 fold

SMILES: O=C1C[C@H]2O[C@@H](CCC(F)(F)F)C3=C(C(=O)c4c(Cl)ccc(OP(=O)(O)O)c4C3=O)[C@H]2O1 [Compound 14, (3aR,5S,11bR)-10-Chloro-2,6,11-trioxo-5-(3,3,3-trifluoropropyl)-3,3a,5,6,11,11b-hexahydro-2H-benzo[g]furo[3,2-c]isochromen-7-yl dihydrogen phosphate]
- body weight loss ([4]; 14 mg/kg once per day, 5 days each week, HCT116 or DLD-1 xenograft mice): without significant weight loss; also recorded: does not cause significant weight loss
- MTD ([4]; male, athymic nude, mouse, in vivo, intraperitoneal, 14 mg/kg, nude mice): 14 mg/kg
- aqueous solubility (Aqueous solubility): aqueous soluble
- tumor reduction (DLD-1 xenograft tumors): 56%
- 4E-BP1 phosphorylation in tumor extracts (4E-BP1 phosphorylation [5]): inhibition of 4E-BP1 phosphorylation
- tumor reduction (HCT116 xenograft tumors): 64%

SMILES: C[C@@H]1CC(=O)[C@@H](O)[C@]2(O1)O[C@@H]1CC(=O)O[C@@H]1C1=C2C(=O)c2c(O)cccc2C1=O [GC, griseusen C]
- ROS production compared with b47 [6]: slightly lower
- inhibition of 4E-BP1 phosphorylation (4E-BP1 phosphorylation [3]): notable inhibition
- pIC50 (HCT116 cells [7]): 6.90

SMILES: NC1(c2ccc(-c3nc4ccn5c(=O)[nH]nc5c4cc3-c3ccccc3)cc2)CCC1 [MK2206]
- inhibition of AKT phosphorylation (AKT phosphorylation): effective inhibition
- inhibition of 4E-BP1 phosphorylation (4E-BP1 phosphorylation [3]): negligible modulation
